Laboratory results taken from patent US20230031406A1, “COMPOUNDS AND COMPOSITIONS FOR TREATING CONDITIONS ASSOCIATED WITH NLRP ACTIVITY” (Novartis AG, priority 2018, published 2023).

test system: PMA-differentiated THP-1 cells; assay: IL-1β production in PMA-differentiated THP-1 cells stimulated with gramicidin (hTHP-1 assay containing 2% fetal bovine serum; Procedures 1 and 2); type: cell-based, human; conditions: Homo sapiens, THP-1, Table B2; 2% fetal bovine serum; class symbols; read-out: hTHP-1 IC50
How it was run: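 Secreted IL-1β, read by HTRF, after gramicidin challenge (5 μM, 2 h) of THP-1 cells differentiated with PMA (20 ng/ml, 16-18 h) and plated at 50,000 cells/well in 2% FBS medium. Compounds, 0.0017-100 μM final with 0.37% DMSO, were added 1 h before stimulation.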

Row | Compound | IC50 [µM]
1 | CC1CCc2c1nc1c(c2NC(=O)N=S(N)(=O)c2cn(C(C)C)cn2)CCC1 (single isomer, unassigned) [Compound 660d, (R, R) or (S, R) or (R, S) or (S, S)-1-isopropyl-N′-((3-methyl-1,2,3,5,6,7-hexahydrodicyclopenta [b,e]pyridin-8-yl)carbamoyl)-1H-imidazole-4-sulfonimidamide] | 5 to 30
2 | CC(C)(O)c1cc(S(N)(=O)=NC(=O)Nc2c3c(nc4c2CCC4(C)C)CCC3)nn1-c1ccccc1 (single isomer, unassigned) [Compound 663b, (R) or (S)-N′-((3,3-dimethyl-1,2,3,5,6,7-hexahydrodicyclopenta [b,e]pyridin-8-yl)carbamoyl)-5-(2-hydroxypropan-2-yl)-1-phenyl-1H-pyrazole-3-sulfonimidamide] | 1 to 5
3 | CC1CCc2c1nc1c(c2NC(=O)N=S(N)(=O)c2cc(C(C)(C)O)n(-c3ccccc3)n2)CCC1 (single isomer, unassigned) [Compound 664b, (R) or (S)-5-(2-Hydroxypropan-2-yl)-N′-((3-methyl-1,2,3,5,6,7-hexahydrodicyclopenta [b,e]pyridin-8-yl)carbamoyl)-1-phenyl-1H-pyrazole-3-sulfonimidamide] | 1 to 5
4 | Cc1c(CC2CC2)nc2c(c1NC(=O)N=S(N)(=O)c1cc(C(C)(C)O)cs1)CCC2 (single isomer, unassigned) [Compound 665b, (R) or (S)-N′-((2-(cyclopropylmethyl)-3-methyl-6,7-dihydro-5H-cyclopenta[b]pyridin-4-yl)carbamoyl)-4-(2-hydroxypropan-2-yl)thiophene-2-sulfonimidamide] | 1 to 5
5 | CCC1CCc2c1nc1c(c2NC(=O)N=S(N)(=O)c2ccn(C(F)F)n2)CCC1 (single isomer, unassigned) [Compound 668b, (R, R) or (R, S) or (S, R) or (S, S)-1-(Difluoromethyl)-N′-((3-ethyl-1,2,3,5,6,7-hexahydrodicyclopenta [b,e]pyridin-8-yl)carbamoyl)-1H-pyrazole-3-sulfonimidamide] | 5 to 30
6 | CCC1CCc2c1nc1c(c2NC(=O)N=S(N)(=O)c2ccn(C(F)F)n2)CCC1 (single isomer, unassigned) [Compound 668c, (R, R) or (R, S) or (S, R) or (S, S)-1-(Difluoromethyl)-N′-((3-ethyl-1,2,3,5,6,7-hexahydrodicyclopenta [b,e]pyridin-8-yl)carbamoyl)-1H-pyrazole-3-sulfonimidamide] | 5 to 30
7 | Cc1c(C2(C)CC2)nc2c(c1NC(=O)N=S(N)(=O)c1cc(C(C)(C)O)cs1)CCC2 (single isomer, unassigned) [Compound 669b, (R) or (S)-4-(2-Hydroxypropan-2-yl)-N′-((3-methyl-2-(1-methylcyclopropyl)-6,7-dihydro-5H-cyclopenta[b]pyridin-4-yl)carbamoyl) thiophene-2-sulfonimidamide] | 5 to 30

same assay, conditions: Homo sapiens, THP-1, Table B2; 2% fetal bovine serum; numeric bounds; read-out: hTHP-1 IC50

Row | Compound | IC50 [µM]
8 | CC1CCc2c1nc1c(c2NC(=O)N=S(N)(=O)c2cn(C(C)C)cn2)CCC1 (single isomer, unassigned) [Compound 660c, (S, R) or (R, S) or (S, S) or (R, R)-1-Isopropyl-N′-((3-methyl-1,2,3,5,6,7-hexahydrodicyclopenta [b,e]pyridin-8-yl)carbamoyl)-1H-imidazole-4-sulfonimidamide] | > 30
9 | CCC1CCc2c1nc1c(c2NC(=O)N=S(N)(=O)c2cnc(C(C)(C)O)s2)CCC1 (single isomer, unassigned) [Compound 662b, (S, R) or (S, S) or (R, S) or (R, R)-N′-((3-Ethyl-1,2,3,5,6,7-hexaliydrodicyclopenta [b,e]pyridin-8-yl)caibamoyl)-2-(2-hydroxypropan-2-yl)thiazole-5-sulfonimidamide] | > 30

Second part, the molecule after the results:

Row | IC50 [µM] | Compound
10 | > 30 | CC(C)(O)c1cc(S(N)(=O)=NC(=O)Nc2c3c(nc4c2CCC4(C)C)CCC3)nn1-c1ccccc1 (single isomer, unassigned) [Compound 663a, (S) or (R)-N′-((3,3-dimethyl-1,2,3,5,6,7-hexahydrodicyclopenta [b,e]pyridin-8-yl)carbamoyl)-5-(2-hydroxypropan-2-yl)-1-phenyl-1H-pyrazole-3-sulfonimidamide]
11 | > 30 | CC1CCc2c1nc1c(c2NC(=O)N=S(N)(=O)c2cc(C(C)(C)O)n(-c3ccccc3)n2)CCC1 (single isomer, unassigned) [Compound 664a, (S) or (R)-5-(2-Hydroxypropan-2-yl)-N′-((3-methyl-1,2,3,5,6,7-hexahydrodicyclopenta [b,e]pyridin-8-yl)carbamoyl)-1-phenyl)-1-pyrazole-3-sulfonimidamide]
12 | > 30 | Cc1c(CC2CC2)nc2c(c1NC(=O)N=S(N)(=O)c1cc(C(C)(C)O)cs1)CCC2 (single isomer, unassigned) [Compound 665a, (S) or (R)-N′-((2-(cyclopropylmethyl)-3-methyl-6,7-dihydro-5H-cyclopenta[b]pyridin-4-yl)carbamoyl)-4-(2-hydroxypropan-2-yl)thiophene-2-sulfonimidamide]
13 | > 30 | CCC1CCc2c1nc1c(c2NC(=O)N=S(N)(=O)c2ccn(C(F)F)n2)CCC1 (single isomer, unassigned) [Compound 668a, (S, S) or (S, R) or (R, S) or (R, R)-1-(Difluoromethyl)-N′-((3-ethyl-1,2,3,5,6,7-hexahydrodicyclopenta [b,e]pyridin-8-yl)carbamoyl)-1H-pyrazole-3-sulfonimidamide]
14 | > 30 | Cc1c(C2(C)CC2)nc2c(c1NC(=O)N=S(N)(=O)c1cc(C(C)(C)O)cs1)CCC2 (single isomer, unassigned) [Compound 669a, (S) or (R)-4-(2-Hydroxypropan-2-yl)-N′-((3-methyl-2-(1-methylcyclopropyl)-6,7-dihydro-5H-cyclopenta[b]pyridin-4-yl)carbamoyl) thiophene-2-sulfonimidamide]

same assay, conditions: Table B2; 2% fetal bovine serum; class symbols; read-out: hTHP-1 IC50

Row | Compound | IC50 [µM]
15 | Cc1c(C(F)(F)F)nc2c(c1NC(=O)N=S(N)(=O)c1cnc(C(C)(C)O)s1)CCC2 (single isomer, unassigned) [Compound 661a, (R) or (S)-2-(2-Hydroxypropan-2-yl)-N′-((3-methyl-2-(trifluoromethyl)-6,7-dihydro-5H-cyclopenta[b]pyridin-4-yl)carbamoyl)thiazole-5-sulfonimidamide] | 0.2 to 1
16 | Cc1c(C(F)(F)F)nc2c(c1NC(=O)N=S(N)(=O)c1cnc(C(C)(C)O)s1)CCC2 (single isomer, unassigned) [Compound 661b, (S) or (R)-2-(2-Hydroxypropan-2-yl)-N′-((3-methyl-2-(trifluoromethyl)-6,7-dihydro-5H-cyclopenta[b]pyridin-4-yl)carbamoyl)thiazole-5-sulfonimidamide] | 5 to 30
17 | CCC1CCc2c1nc1c(c2NC(=O)N=S(N)(=O)c2cnc(C(C)(C)O)s2)CCC1 (single isomer, unassigned) [Compound 662d, (R, R) or (R, S) or (S, R) or (S, S)-N′-((3-Ethyl-1,2,3,5,6,7-hexaliydrodicyclopenta [b,e]pyridin-8-yl)caibamoyl)-2-(2-hydroxypropan-2-yl)thiazole-5-sulfonimidamide] | 5 to 30

Other lines, results leading:

Row | IC50 [µM] | Compound
18 | 5 to 30 | CC(C)c1c(C2CC2)nc2c(c1NC(=O)N=S(N)(=O)c1cc(C(C)(C)O)cs1)CCC2 (single isomer, unassigned) [Compound 667a, (S) or (R)-N′-((2-cyclopropyl-3-isopropyl-6,7-dihydro-5H-cyclopenta[b]pyridin-4-yl)carbamoyl)-4-(2-hydroxypropan-2-yl)thiophene-2-sulfonimidamide]
19 | 0.2 to 1 | CC(C)c1c(C2CC2)nc2c(c1NC(=O)N=S(N)(=O)c1cc(C(C)(C)O)cs1)CCC2 (single isomer, unassigned) [Compound 667b, (R) or (S)-N′-((2-cyclopropyl-3-isopropyl-6,7-dihydro-5H-cyclopenta[b]pyridin-4-yl)carbamoyl)-4-(2-hydroxypropan-2-yl)thiophene-2-sulfonimidamide]
20 | 5 to 30 | CC(C)(O)c1csc(S(N)(=O)=NC(=O)Nc2c3c(nc(C4CC4)c2C2CC2)CCC3)c1 (single isomer, unassigned) [Compound 670a, (S) or (R)-N′-((2,3-dicyclopropyl-6,7-dihydro-5H-cyclopenta[b]pyridin-4-yl)carbamoyl)-4-(2-hydroxypropan-2-yl)thiophene-2-sulfonimidamide]
21 | 0.04 to 0.2 | CC(C)(O)c1csc(S(N)(=O)=NC(=O)Nc2c3c(nc(C4CC4)c2C2CC2)CCC3)c1 (single isomer, unassigned) [Compound 670b, (R) or (S)-N′-((2,3-dicyclopropyl-6,7-dihydro-5H-cyclopenta[b]pyridin-4-yl)carbamoyl)-4-(2-hydroxypropan-2-yl)thiophene-2-sulfonimidamide]

same assay, conditions: Table B2; 2% fetal bovine serum; numeric bounds; read-out: hTHP-1 IC50

Row | Compound | IC50 [µM]
22 | CCC1CCc2c1nc1c(c2NC(=O)N=S(N)(=O)c2cnc(C(C)(C)O)s2)CCC1 (single isomer, unassigned) [Compound 662a, (S, S) or (S, R) or (R, S) or (R, R)-N′-((3-Ethyl-1,2,3,5,6,7-hexaliydrodicyclopenta [b,e]pyridin-8-yl)caibamoyl)-2-(2-hydroxypropan-2-yl)thiazole-5-sulfonimidamide] | > 30
23 | CCC1CCc2c1nc1c(c2NC(=O)N=S(N)(=O)c2ccn(C(F)F)n2)CCC1 (single isomer, unassigned) [Compound 668d, (S, R) or (S, S) or (R, S) or (R, R)-1-(Difluoromethyl)-N′-((3-ethyl-1,2,3,5,6,7-hexahydrodicyclopenta [b,e]pyridin-8-yl)carbamoyl)-1H-pyrazole-3-sulfonimidamide] | > 30
